Assay results reported in US20150259645A1, “METHOD FOR INDUCING IL-2-FREE PROLIFERATION OF GAMMA DELTA T CELLS” (INSERM (INSTITUT NATIONAL DE LA SANTÉ ET DE LA RECHERCHE …, priority 2012, published 2015).

System: Vγ9Vδ2 T lymphocytes
Assay: CFSE dilution proliferation assay in PBMC culture, flow cytometry
Assay type: cell-based, human
Settings: 100 nM BrHPP; six days culture of PBMC; FIG. 1A
Experimental: Fresh blood samples were collected from healthy donors, and PBMC were prepared on a Ficoll-Paque density gradient (Amersham Biosciences AB, Upssala, Sweden) by centrifugation (800 g, 30 min at room temperature).
Cell cultures were performed in complete medium: RPMI 1640 supplemented by penicillin 100 UI/ml, streptomycin 100 μg/ml, L-glutamin 2 mM, sodium pyruvate 1 mM and 10% FCS.
PBMC or PBL were labeled with 0.125 μM CFSE (Invitrogen, France) for 8 min at 37° C. and cultured in 96-well plates (3.10^5 cells per well) in 200 μl of complete medium with or without BrHPP [100 nM], IL-33 [0-1000 ng/ml] and with or without rhIL-2 [10 UI/ml] (Sanofi Aventis, France). After six days in culture CFSE dilution was evaluated in γδ T cells (CD3^+ γ9 TCR cells) by flow cytometry.
The IL-33 forms used in this example was the natural cleavage product of human IL-33 (IL-33 aa 95-270) and the truncated form of human IL-33 (IL-33 aa 112-270).
Anti-TCR γ9-APC and anti-CD3-Pacific blue were used to select Vγ9Vδ2 T lymphocytes by flow cytometry.
We studied the effect of IL-33 in combination with the specific phosphoantigen, BrHPP, on the proliferation of human Vγ9Vδ2 T lymphocytes. […] After six days in culture, the proliferation of Vγ9Vδ2 T lymphocytes was analyzed by the reduction of the CFSE fluorescence intensity on the Vγ9Vδ2 T lymphocytes gated by flow cytometry.

Compound: CC(O)(CBr)CCOP(=O)(O)OP(=O)(O)O (stereo not shown) [BrHPP]
- proliferation of Vγ9Vδ2 T lymphocytes (CFSE dilution): induces the proliferation
